Assay results: the supplement of paper PMC10307832

Tests used:
Assay in all cases: relative viability (nuclei count vs DMSO), 5 days (fraction); higher = more cells survive
[1] = tested on: HCC-44
Method in brief: (§1)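 Relative viability equals treated-well nuclei counts divided by vehicle-well nuclei counts. Counts came from 4× images of lung cancer cell lines grown in 1536-well plates for 5 days after pin-tool dosing on the day after seeding. Dosing used one drug alone or a fixed anchor-drug dose plus five library-drug doses (not always all listed) in √10 steps, and values are medians of duplicate plates.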

[2] = tested on: NCI-H1437
Method in brief: as §1

[3] = tested on: A549
Method in brief: as §1

[4] = tested on: NCI-H1703
Method in brief: as §1

[5] = tested on: NCI-H1299
Method in brief: as §1

[6] = tested on: EBC-1
Method in brief: as §1

[7] = tested on: NCI-H522
Method in brief: as §1

[8] = tested on: NCI-H1648
Method in brief: as §1

[9] = tested on: HCC-366
Method in brief: as §1

[10] = tested on: Calu-6
Method in brief: as §1

[11] = tested on: IA-LM
Method in brief: as §1

[12] = tested on: NCI-H1623
Method in brief: as §1

NC(=O)Nc1cc(-c2cccc(F)c2)sc1C(=O)N[C@H]1CCCNC1 [AZD7762] + O=C(c1cc(Cc2n[nH]c(=O)c3ccccc23)ccc1F)N1CCN(C(=O)C2CC2)CC1 [Olaparib] (partner 8 µM)
relative viability ([1]; first compound 0.01 µM): 0.986
relative viability ([1]; first compound 0.03162 µM): 0.922
relative viability ([1]; first compound 0.1 µM): 1.01
relative viability ([1]; first compound 0.3162 µM): 0.964
relative viability ([1]; first compound 1 µM): 0.954
relative viability ([2]; first compound 0.01 µM): 0.696
relative viability ([2]; first compound 0.03162 µM): 0.648
relative viability ([2]; first compound 0.1 µM): 0.621
relative viability ([2]; first compound 0.3162 µM): 0.612
relative viability ([2]; first compound 1 µM): 0.433
relative viability ([3]; first compound 0.01 µM): 0.37
relative viability ([3]; first compound 0.03162 µM): 0.387
relative viability ([3]; first compound 0.1 µM): 0.381
relative viability ([3]; first compound 0.3162 µM): 0.481
relative viability ([3]; first compound 1 µM): 0.155
relative viability ([4]; first compound 0.01 µM): 0.305
relative viability ([4]; first compound 0.03162 µM): 0.214
relative viability ([4]; first compound 0.1 µM): 0.206
relative viability ([4]; first compound 0.3162 µM): 0.168
relative viability ([4]; first compound 1 µM): 0.12
relative viability ([5]; first compound 0.01 µM): 1.02
relative viability ([5]; first compound 0.03162 µM): 1
relative viability ([5]; first compound 0.1 µM): 0.954
relative viability ([5]; first compound 0.3162 µM): 0.688
relative viability ([5]; first compound 1 µM): 0.312
relative viability ([6]; first compound 0.01 µM): 0.848
relative viability ([6]; first compound 0.03162 µM): 0.915
relative viability ([6]; first compound 0.1 µM): 0.872
relative viability ([6]; first compound 0.3162 µM): 0.717
relative viability ([6]; first compound 1 µM): 0.451
relative viability ([7]; first compound 0.01 µM): 0.711
relative viability ([7]; first compound 0.03162 µM): 0.631
relative viability ([7]; first compound 0.1 µM): 0.676
relative viability ([7]; first compound 0.3162 µM): 0.59
relative viability ([7]; first compound 1 µM): 0.632
relative viability ([8]; first compound 0.01 µM): 0.639
relative viability ([8]; first compound 0.03162 µM): 0.994
relative viability ([8]; first compound 0.1 µM): 0.751
relative viability ([8]; first compound 0.3162 µM): 0.934
relative viability ([8]; first compound 1 µM): 0.61
relative viability ([9]; first compound 0.01 µM): 0.364
relative viability ([9]; first compound 0.03162 µM): 0.305
relative viability ([9]; first compound 0.1 µM): 0.278
relative viability ([9]; first compound 0.3162 µM): 0.157
relative viability ([9]; first compound 1 µM): 0.0818
relative viability ([10]; first compound 0.01 µM): 0.636
relative viability ([10]; first compound 0.03162 µM): 0.47
relative viability ([10]; first compound 0.1 µM): 0.375
relative viability ([10]; first compound 0.3162 µM): 0.166
relative viability ([10]; first compound 1 µM): 0.109
relative viability ([11]; first compound 0.01 µM): 1.07
relative viability ([11]; first compound 0.03162 µM): 0.796
relative viability ([11]; first compound 0.1 µM): 0.891
relative viability ([11]; first compound 0.3162 µM): 0.655
relative viability ([11]; first compound 1 µM): 0.171

C=C1C(=O)O[C@@H](CCCCCCCC)[C@@H]1C(=O)O [C-75] + CCNC(=O)c1noc(-c2cc(C(C)C)c(O)cc2O)c1-c1ccc(CN2CCOCC2)cc1 [Luminespib] (partner 0.01 µM)
relative viability ([1]; first compound 0.08 µM): 0.966
relative viability ([1]; first compound 0.253 µM): 0.984
relative viability ([1]; first compound 0.8 µM): 1
relative viability ([1]; first compound 2.53 µM): 0.89
relative viability ([1]; first compound 8 µM): 0.729
relative viability ([2]; first compound 0.08 µM): 1.15
relative viability ([2]; first compound 0.253 µM): 1.27
relative viability ([2]; first compound 0.8 µM): 1.11
relative viability ([2]; first compound 2.53 µM): 1.13
relative viability ([2]; first compound 8 µM): 1.12
relative viability ([7]; first compound 0.08 µM): 1.06
relative viability ([7]; first compound 0.253 µM): 1.04
relative viability ([7]; first compound 0.8 µM): 1.06
relative viability ([7]; first compound 2.53 µM): 0.904
relative viability ([7]; first compound 8 µM): 0.911
relative viability ([12]; first compound 0.08 µM): 0.436
relative viability ([12]; first compound 0.253 µM): 0.536
relative viability ([12]; first compound 0.8 µM): 0.585
relative viability ([12]; first compound 2.53 µM): 0.505
relative viability ([12]; first compound 8 µM): 0.475

CC1(C)CCC(c2ccc(Cl)cc2)=C(CN2CCN(c3ccc(C(=O)NS(=O)(=O)c4ccc(N[C@H](CCN5CCOCC5)CSc5ccccc5)c(S(=O)(=O)C(F)(F)F)c4)cc3)CC2)C1 [Navitoclax] + CCNC(=O)c1noc(-c2cc(C(C)C)c(O)cc2O)c1-c1ccc(CN2CCOCC2)cc1 [Luminespib] (partner 0.01 µM)
relative viability ([1]; first compound 0.05 µM): 1.33
relative viability ([1]; first compound 0.5 µM): 0.823
relative viability ([2]; first compound 0.005 µM): 1.12
relative viability ([2]; first compound 0.01581 µM): 1.1
relative viability ([2]; first compound 0.05 µM): 1.09
relative viability ([2]; first compound 0.1581 µM): 1.14
relative viability ([2]; first compound 0.5 µM): 1.01
relative viability ([7]; first compound 0.005 µM): 1.07
relative viability ([7]; first compound 0.01581 µM): 1.25
relative viability ([7]; first compound 0.05 µM): 1.04
relative viability ([7]; first compound 0.1581 µM): 1.19
relative viability ([7]; first compound 0.5 µM): 1.36
relative viability ([12]; first compound 0.005 µM): 0.478
relative viability ([12]; first compound 0.01581 µM): 0.631
relative viability ([12]; first compound 0.05 µM): 0.463
relative viability ([12]; first compound 0.1581 µM): 0.515
relative viability ([12]; first compound 0.5 µM): 0.471
